Key:
JIMT-1 cells = experiment: Cell viability assay (BrdU incorporation), JIMT-1; format: cell-based; details: conjugated to Trastuzumab D265C
Method: (§1) Cytotoxic activity of anti PSMA and anti-Her2 amatoxin conjugates was evaluated in vitro with target-positive tumor cell lines and the chemiluminescent BrdU incorporation assay (Roche Diagnostics). Cell viability was determined after 96 h incubation with different concentrations of conjugates at 37° C. and 5% CO2 by measurement of fixed and permeabilized cells with an anti-BrdU-HRP antibody in a BMG Labtech Optima microplate reader. EC50 value of dose-response curve was calculated by Graphpad Prism 4.0 software.
JIMT-1 is a solid cancer cell line derived from a breast ductal adenocarcinoma.

LNCaP cells = experiment: Cell viability assay (BrdU incorporation), LNCaP; format: cell-based; details: conjugated to anti-PSMA antibody h3/F11 D265C
Method: as §1
LNCaP is a solid prostate adenocarcinoma cell line derived from a left supraclavicular lymph node metastasis.

Raji cells = experiment: CellTiter-Glo 2.0 cell viability assay, Raji; format: cell-based, human; details: conjugated to antiCD19 antibody chiBCE19 D265C
Method: Cytotoxic activity of anti CD19 amatoxin conjugates on target positive cells was assessed by CellTiter-Glo 2.0 Luminescent Cell Viability Assay (Promega, Madison, WI) in 96-well tissue culture plates. Cell viability was determined after 96 h incubation with different concentrations of conjugates at 37° C. and 5% CO2. Data analysis was performed with GraphPad Prism 7 (GraphPad Software, Inc, La Jolla, CA) software to plot curve fits and perform statistical analyses. Nonlinear variable slope curve-fits were plotted as log[ADC] vs. Response and EC50 values were generated.
Raji is a cell line derived from Burkitt's lymphoma.

[1] = test system: Jimt-1 breast cancer cells (s.c. xenograft); experiment: Jimt-1 xenograft model, tumor volume; format: in vivo, NMRI nude mice; details: conjugated to Trastuzumab D265C; JIMT xenografts; single intravenous dose
Method: (§2) Jimt-1 xenograft model: Female NMRI nude mice were inoculated with 5×10^6 Jimt-1 breast cancer cells per mouse subcutaneously in the right flank. At a mean tumor vol. of ˜120 mm^3, animals were allocated to groups on day 0. On the same day the animals received a single intravenous dose of amanitin based anti-Her2 antibody drug conjugates (ADCs) Tumor volume and body weight were determined twice per week.
(§3) Tumor growth was monitored by caliper measurement. Tumor size was calculated according to the equation: volume=W^2×L×0.5 (L=length and W=perpendicular width of the tumor, L>W).

[2] = test system: LNCap prostate carcinoma cells (s.c. xenograft); experiment: LnCap xenograft model, tumor volume; format: in vivo, CB17 SCID mice; details: conjugated to anti-PSMA antibody h3/F11 D265C; LnCap xenografts; single intravenous dose
Method: as §2, with “LnCap” for “Jimt-1”, “Male CB17 SCID” for “Female NMRI nude”, “2.5×10^6 LNCap prostate carcinoma” for “5×10^6 Jimt-1 breast cancer”, “˜150” for “˜120”, “anti-PSMA” for “anti-Her2”
as §3

[3] = test system: Raji Burkitt's lymphoma cells (s.c. xenograft); experiment: Raji s.c. xenograft model (solid tumor), tumor volume; format: in vivo, CB17 SCID mice; details: for Efficacy Raji sc: anti-CD19 conjugate, grade, key not given; for tumor shrinking activity (FIG. 7): conjugated to chiBCE19 D265C, Raji cells injected s.c., single intravenous dose
Method: as §2, with “Raji” for “Jimt-1”, “CB17 SCID” for “NMRI nude”, “2.5×10^6 Raji Burkitt's lymphoma” for “5×10^6 Jimt-1 breast cancer”, “˜80” for “˜120”, “anti-CD19” for “anti-Her2”
as §3
Growth inhibition experiments were then carried out with tumor xenografts of Raji cells injected into mice s.c. This approach leads to tumors that mimic the phenotype of a solid tumor.

[4] = test system: Raji Luc cells (i.v. xenograft); experiment: Intravenous Raji-Luc xenograft (liquid tumor), survival; format: in vivo, CB17 SCID mice; details: conjugated to chiBCE19 D265C; i.v. injected Raji Luc cells; single i.v. dose
Method: (§4) Intravenous Nalm-6 xenograft model: Female CB17 SCID mice were inoculated with 2.5×10^6 Raji Burkitt's lymphoma cells per mouse into the tail vein. Animals were allocated to groups on day 0. On day 3 after tumor cell injection, the animals received a single intravenous dose of amanitin based anti-CD19 antibody drug conjugates (ADCs). Body weight was determined twice per week. Survival was monitored daily.
as §4, with “[…]” for “Nalm-6”, “5×10^6 Nalm-6 B Cell precursor leukemia” for “2.5×10^6 Raji Burkitt's lymphoma”
(§5) Survival rates were then investigated with tumor xenografts of Raji cells (with or without transfected luciferase) or Nalm-6 cells obtained by i.v. administration of the respective cells.
(§6) Raji is a cell line derived from Burkitt's lymphoma, Nalm-6 is a cell line derived from acute lymphoblastic leukemia (ALL). Results are shown in the Kaplan Meier curves of FIG. 6.
(§7) Survival experiments were carried out with i.v. injected Raji Luc (FIG. 6A) or NALM6 (FIG. 6B) cells.

[5] = test system: Nalm-6 cells (i.v. xenograft); experiment: Intravenous Nalm-6 xenograft model (liquid tumor), survival; format: in vivo, CB17 SCID mice; details: conjugated to chiBCE19 D265C; i.v. injected NALM6 cells; single i.v. dose
Method: as §4
as §4, with “[…]” for “Nalm-6”, “5×10^6 Nalm-6 B Cell precursor leukemia” for “2.5×10^6 Raji Burkitt's lymphoma”
as §5, §6, §7

[6] = Highest non-severely toxic dose, DIG (Digoxigenin antibody) conjugates, Cyno; details: Digoxigenin antibody conjugate (no cross reaction with host targets); Cynomolgus monkey
RNA polymerase III = RNA polymerase III (Homo sapiens, UniProt O14802+Q9NW08); details: cited from earlier work
RNA polymerase I = RNA polymerase I (Homo sapiens, UniProt O95602+Q9H9Y6); details: cited from earlier work

CC[C@H](C)[C@@H]1NC(=O)CNC(=O)[C@@H]2Cc3c([nH]c4cc(OCc5ccc(NC(=O)[C@H](C)NC(=O)[C@@H](NC(=O)CCN6C(=O)C=CC6=O)C(C)C)cc5)ccc34)[S@+]([O-])CC(NC(=O)CNC1=O)C(=O)N[C@@H](CC(N)=O)C(=O)CN1CC(O)C[C@H]1C(=O)N[C@@H]([C@@H](C)[C@@H](O)CO)C(=O)N2 (stereo partly shown) [30.1699]
potency in cell viability assay (FIG. 1) (JIMT-1 cells): comparable potency | potency in cell viability assay (FIG. 3) (LNCaP cells): comparable potency | potency in cell viability assay (FIG. 5) (Raji cells): comparable potency | tumor shrinking activity (FIG. 2) [1]: strong tumor shrinking activity | tumor shrinking activity (FIG. 4) [2]: strong tumor shrinking activity | Efficacy Raji sc [3]: ∘ | tumor shrinking activity (FIG. 7) [3]: strong tumor shrinking activity | potency in survival experiment (FIG. 6A) [4]: lower potency than the Trp variant 30.2115 | potency in survival experiment (FIG. 6B) [5]: lower potency than the Trp variant 30.2115 | HNSTD DIG Cyno [6]: >3 mg/kg

CC[C@H](C)[C@@H]1NC(=O)CNC(=O)[C@@H]2Cc3c([nH]c4cc(O)ccc34)[S@+]([O-])CC(NC(=O)CNC1=O)C(=O)N[C@@H](CC(=O)NCc1ccc(NC(=O)[C@H](C)NC(=O)C(NC(=O)CCN3C(=O)C=CC3=O)C(C)C)cc1)C(=O)CN1CC(O)C[C@H]1C(=O)N[C@@H]([C@@H](C)[C@@H](O)CO)C(=O)N2 (stereo partly shown) [30.2060]
potency in cell viability assay (FIG. 1) (JIMT-1 cells): comparable potency | potency in cell viability assay (FIG. 3) (LNCaP cells): comparable potency | potency in cell viability assay (FIG. 5) (Raji cells): comparable potency | tumor shrinking activity (FIG. 2) [1]: strong tumor shrinking activity | tumor shrinking activity (FIG. 4) [2]: strong tumor shrinking activity | Efficacy Raji sc [3]: ∘ | tumor shrinking activity (FIG. 7) [3]: strong tumor shrinking activity | HNSTD DIG Cyno [6]: <7.5 mg/kg

CC[C@H](C)[C@@H]1NC(=O)CNC(=O)[C@@H]2Cc3c([nH]c4ccccc34)SCC(NC(=O)CNC1=O)C(=O)N[C@@H](CC(=O)NCc1ccc(NC(=O)[C@H](C)NC(=O)C(NC(=O)CCN3C(=O)C=CC3=O)C(C)C)cc1)C(=O)CN1CC(O)C[C@H]1C(=O)N[C@@H]([C@@H](C)[C@@H](O)CO)C(=O)N2 (stereo partly shown) [30.2115, reference compound]
potency in cell viability assay (FIG. 1) (JIMT-1 cells): slightly decreased potency | potency in cell viability assay (FIG. 3) (LNCaP cells): strongly decreased potency | potency in cell viability assay (FIG. 5) (Raji cells): comparable potency | tumor shrinking activity (FIG. 2) [1]: significantly decreased tumor shrinking activity | tumor shrinking activity (FIG. 4) [2]: significantly decreased tumor shrinking activity | tumor shrinking activity (FIG. 7) [3]: significantly decreased tumor shrinking activity | HNSTD DIG Cyno [6]: <7.5 mg/kg

CC[C@H](C)[C@@H]1NC(=O)CNC(=O)[C@@H]2Cc3c([nH]c4ccccc34)[S+]([O-])CC(NC(=O)CNC1=O)C(=O)N[C@@H](CC(=O)NCc1ccc(NC(=O)[C@H](C)NC(=O)[C@@H](NC(=O)CCN3C(=O)C=CC3=O)C(C)C)cc1)C(=O)CN1CC(O)C[C@H]1C(=O)N[C@@H]([C@@H](C)[C@@H](O)CO)C(=O)N2 (stereo partly shown) [30.2183, reference compound]
potency in cell viability assay (FIG. 1) (JIMT-1 cells): strongly decreased potency | potency in cell viability assay (FIG. 3) (LNCaP cells): strongly decreased potency | potency in cell viability assay (FIG. 5) (Raji cells): comparable potency | tumor shrinking activity (FIG. 2) [1]: significantly decreased tumor shrinking activity | tumor shrinking activity (FIG. 4) [2]: significantly decreased tumor shrinking activity | tumor shrinking activity (FIG. 7) [3]: significantly decreased tumor shrinking activity

CC[C@H](C)[C@@H]1NC(=O)CNC(=O)[C@@H]2Cc3c([nH]c4cc(O)ccc34)SCC(NC(=O)CNC1=O)C(=O)N[C@@H](CC(=O)NCc1ccc(NC(=O)[C@H](C)NC(=O)C(NC(=O)CCN3C(=O)C=CC3=O)C(C)C)cc1)C(=O)CN1CC(O)C[C@H]1C(=O)N[C@@H]([C@@H](C)[C@@H](O)CO)C(=O)N2 (stereo partly shown) [30.2347]
potency in cell viability assay (FIG. 1) (JIMT-1 cells): comparable potency | potency in cell viability assay (FIG. 3) (LNCaP cells): comparable potency | potency in cell viability assay (FIG. 5) (Raji cells): comparable potency | tumor shrinking activity (FIG. 2) [1]: strong tumor shrinking activity | tumor shrinking activity (FIG. 4) [2]: strong tumor shrinking activity | Efficacy Raji sc [3]: ∘ | tumor shrinking activity (FIG. 7) [3]: strong tumor shrinking activity | HNSTD DIG Cyno [6]: <5 mg/kg

CC[C@H](C)[C@@H]1NC(=O)CNC(=O)[C@@H]2Cc3c([nH]c4cc(OCc5ccc(NC(=O)[C@H](C)NC(=O)[C@@H](NC(=O)CCN6C(=O)C=CC6=O)C(C)C)cc5)ccc34)SCC(NC(=O)CNC1=O)C(=O)N[C@@H](CC(N)=O)C(=O)CN1CC(O)C[C@H]1C(=O)N[C@@H]([C@@H](C)[C@@H](O)CO)C(=O)N2 (stereo partly shown) [30.2371]
potency in cell viability assay (FIG. 1) (JIMT-1 cells): comparable potency | potency in cell viability assay (FIG. 3) (LNCaP cells): comparable potency | potency in cell viability assay (FIG. 5) (Raji cells): comparable potency | tumor shrinking activity (FIG. 2) [1]: strong tumor shrinking activity | tumor shrinking activity (FIG. 4) [2]: strong tumor shrinking activity | Efficacy Raji sc [3]: ∘ | tumor shrinking activity (FIG. 7) [3]: strong tumor shrinking activity | HNSTD DIG Cyno [6]: >2 mg/kg

α-amanitin [Alpha-amanitin]
binding to RNA polymerase III (RNA polymerase III): only slightly binds | binding to RNA polymerase I (RNA polymerase I): no binding
